# Results published in patent US7618985B2 (N.V. Organon, priority 2005, dated 2009).
# Target: recombinant human ROCK-1 (Homo sapiens, UniProt Q13464)
# Assay: In-vitro inhibitory activity on recombinant human ROCK-1 (IMAP fluorescence polarisation, fluorescein-labelled peptide)
# Format: biochemical
# Details: for IC50: read-out: ROCK-I pIC50 (converted)
# Description: In-Vitro Determination of Inhibitory Activity of Compounds of the Invention on Recombinant Human ROCK-1
# 10 μl of a 0.1 ng/μl solution of recombinant human ROCK-1 in assay buffer containing 2 mM dithiothreitol, is then added to each well, yielding a final test compound concentration of 10 μM. Following a one hour incubation at room temperature in the dark, enzyme activity is detected by adding 60 μl of IMAP binding reagent (Molecular Devices) to each well.
# Sequence of recombinant human ROCK-1 (Q13464 whole entry): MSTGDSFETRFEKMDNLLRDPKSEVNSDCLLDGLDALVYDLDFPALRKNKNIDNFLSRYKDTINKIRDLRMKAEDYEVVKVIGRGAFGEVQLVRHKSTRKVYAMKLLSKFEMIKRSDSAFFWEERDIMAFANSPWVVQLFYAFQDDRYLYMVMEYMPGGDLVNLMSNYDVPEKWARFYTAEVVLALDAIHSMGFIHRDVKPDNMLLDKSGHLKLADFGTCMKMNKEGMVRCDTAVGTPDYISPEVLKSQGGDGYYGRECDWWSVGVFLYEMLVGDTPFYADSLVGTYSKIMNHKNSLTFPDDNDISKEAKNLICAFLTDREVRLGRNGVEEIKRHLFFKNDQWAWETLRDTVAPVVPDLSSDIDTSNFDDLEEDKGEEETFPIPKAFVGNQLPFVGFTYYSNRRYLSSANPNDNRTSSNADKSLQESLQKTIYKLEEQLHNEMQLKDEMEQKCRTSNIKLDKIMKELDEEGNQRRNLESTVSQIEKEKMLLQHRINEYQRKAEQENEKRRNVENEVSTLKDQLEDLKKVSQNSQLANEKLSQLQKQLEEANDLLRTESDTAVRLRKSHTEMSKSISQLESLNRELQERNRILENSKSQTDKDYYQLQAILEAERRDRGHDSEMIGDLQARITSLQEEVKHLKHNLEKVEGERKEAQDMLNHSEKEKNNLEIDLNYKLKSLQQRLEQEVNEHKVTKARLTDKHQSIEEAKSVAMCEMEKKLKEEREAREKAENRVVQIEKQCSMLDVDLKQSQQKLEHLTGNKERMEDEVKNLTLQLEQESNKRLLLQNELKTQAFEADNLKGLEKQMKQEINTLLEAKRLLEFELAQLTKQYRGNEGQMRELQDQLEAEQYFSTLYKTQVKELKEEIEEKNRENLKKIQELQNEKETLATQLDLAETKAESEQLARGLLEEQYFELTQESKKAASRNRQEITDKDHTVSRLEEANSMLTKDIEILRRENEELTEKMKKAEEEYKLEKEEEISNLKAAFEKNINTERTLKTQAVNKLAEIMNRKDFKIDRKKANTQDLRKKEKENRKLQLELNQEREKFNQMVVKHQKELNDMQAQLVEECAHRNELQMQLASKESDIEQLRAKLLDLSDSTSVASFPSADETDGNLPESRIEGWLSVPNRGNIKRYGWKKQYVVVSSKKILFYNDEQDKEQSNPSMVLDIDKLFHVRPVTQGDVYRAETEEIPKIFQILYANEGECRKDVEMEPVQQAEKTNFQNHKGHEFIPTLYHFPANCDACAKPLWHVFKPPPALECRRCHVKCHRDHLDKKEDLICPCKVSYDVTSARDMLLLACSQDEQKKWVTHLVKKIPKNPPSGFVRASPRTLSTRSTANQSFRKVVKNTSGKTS
Structure (SMILES),"ROCK-I pIC50 (recombinant human ROCK-1, dose response curve, IC50 = concentration causing 50% inhibition of the enzymatic activity)",IC50 [nM]
"Nc1nccc2cc(S[C@@H]3CCNC3)ccc12 [Example 13B, (R)-6-(Pyrrolidin-3-ylsulfanyl)isoquinolin-1-ylamine]",,631
"Nc1nccc2cc(S[C@H]3CCNC3)ccc12 [Example 13A, (S)-6-(Pyrrolidin-3-ylsulfanyl)isoquinolin-1-ylamine]",,631
"Nc1nccc2cc(OC3CCCN(Cc4cccs4)C3)ccc12 (stereo not drawn) [Example 7G, 6-(1-Thiophen-2-ylmethylpiperidin-3-yloxy)isoquinolin-1-ylamine]",,251
"Nc1nccc2cc(OC3CCCN(CCOc4ccccc4)C3)ccc12 (stereo not drawn) [Example 21, 6-[1-(2-Phenoxyethyl)piperidin-3-yloxy]isoquinolin-1-ylamine]",,200
"Cc1ccc(CN2CCC[C@H](Oc3ccc4c(N)nccc4c3)C2)cc1 [Example 8B, (S)-6-[1-(4-Methylbenzyl)piperidin-3-yloxy]isoquinolin-1-ylamine]",,158
"Nc1nccc2cc(SC3CCNCC3)ccc12 [Example 13C, 6-(Piperidin-4-ylsulfanyl)isoquinolin-1-ylamine]",,631
"Nc1nccc2cc(OC3CCCN(Cc4ccc[nH]4)C3)ccc12 (stereo not drawn) [Example 7F, 6-[1-(1H-Pyrrol-2-ylmethyl)piperidin-3-yloxy]isoquinolin-1-ylamine]",,126
"O=c1[nH]ccc2cc(SC3CCNCC3)ccc12 [Example 25, 6-(Piperidin4-ylsulfanyl)-2H-isoquinolin-1-one]",,200
"Nc1nccc2cc(SC3CCCNC3)ccc12 (stereo not drawn) [Example 12, 6-(Piperidin-3-ylsulfanyl)isoquinolin-1-ylamine]",,501
O=c1[nH]cc(Br)c2cc(O[C@H]3CCCNC3)ccc12 [Example 29],,316

# Results, then the molecule that gave them:
"ROCK-I pIC50 (recombinant human ROCK-1, dose response curve, IC50 = concentration causing 50% inhibition of the enzymatic activity)",IC50 [nM],Structure (SMILES)
6.1,,"Cc1ccc(CN2CCC(Oc3ccc4c(=O)[nH]ccc4c3)CC2)cc1 [Example 30A, 6-[1-(4-Methylbenzyl)piperidin-4-yloxy]-2H-isoquinolin-1-one]"
,501,"O=c1[nH]ccc2cc(OC3CCN(Cc4ccco4)CC3)ccc12 [Example 30E, 6-(1-Furan-2-ylmethylpiperidin-4-yloxy)-2H-isoquinolin-1-one]"
,794,"O=c1[nH]ccc2cc(OC3CCN(CCCO)CC3)ccc12 [Example 31C, 6-[1-(3-Hydroxypropyl)piperidin-4-yloxy]-2H-isoquinolin-1-one]"
,794,"O=c1[nH]ccc2cc(OC3CCN(CCO)CC3)ccc12 [Example 31E, 6-[1-(2-Hydroxyethyl)piperidin-4-yloxy]-2H-isoquinolin-1-one]"
,501,"O=c1[nH]ccc2cc(OC3CCCN(CC4CCCCC4)C3)ccc12 (stereo not drawn) [Example 33C, 6-(1-Cyclohexylmethylpiperidin-3-yloxy)-2H-isoquinolin-1-one]"
,794,Cc1cc2c(N)nccc2cc1OC1CCCN(Cc2ccccc2)C1 (stereo not drawn) [Example 19A]
,200,"CC(c1ccccc1)N1CCC[C@H](Oc2ccc3c(N)nccc3c2)C1 (stereo partly drawn) [Example 21G, (S)-6-[1-(1-Phenylethyl)piperidin-3-yloxy]isoquinolin-1-ylamine]"
,398,"COc1ccc(CN2CCCC(Oc3ccc4c(=O)[nH]ccc4c3)C2)cc1 (stereo not drawn) [Example 23D, 6-[1-(4-Methoxybenzyl)piperidin-3-yloxy]-2H-isoquinolin-1-one]"
,501,"O=C(CN1CCC[C@H](Oc2ccc3c(=O)[nH]ccc3c2)C1)c1ccccc1 [Example 32B, (S)-6-[1-(2-Oxo-2-phenylethyl)piperidin-3-yloxy]-2H-isoquinolin-1-one]"
,398,"COc1cccc(CN2CCC(Oc3ccc4c(=O)[nH]ccc4c3)CC2)c1 [Example 31F, 6-[1-(3-Methoxybenzyl)piperidin-4-yloxy]-2H-isoquinolin-1-one]"
,316,"O=c1[nH]ccc2cc(OC3CCN(Cc4ccc[nH]4)CC3)ccc12 [Example 31G, 6-[1-(1 H-Pyrrol-2-ylmethyl)piperidin-4-yloxy]-2H-isoquinolin-1-one]"
,631,"CN1CCC(Oc2ccc3c(=O)[nH]ccc3c2)CC1 [Example 30G, 6-(1-Methylpiperidin-4-yloxy)-2H-isoquinolin-1-one]"
,251,"O=c1[nH]ccc2cc(O[C@@H]3CCCN(CCOc4ccccc4)C3)ccc12 [Example 32E, (R)-6-[1-(2-Phenoxyethyl)piperidin-3-yloxy]-2H-isoquinolin-1-one]"
,631,"O=c1[nH]ccc2cc(O[C@H]3CCCN(CCOc4ccccc4)C3)ccc12 [Example 32C, (S)-6-[1-(2-Phenoxyethyl)piperidin-3-yloxy]-2H-isoquinolin-1-one]"
